Common to all, as to assay type: cell-based
In one experiment the test system is Candida auris. The experiment can be described thus: MIC determination against clinical isolates of Candida auris (CLSI M27, 4th edition). As to conditions: Candidozyma auris. From the text: (§1) MIC: Minimum Inhibitory Concentration (MIC) is defined as the lowest concentration of an antimicrobial ingredient that is bacteriostatic.
(§2) Testing has been performed in triplicates for each isolate.

Another experiment concerns Rhizopus oryzae. The experiment can be described thus: MIC determination against clinical isolates of the order Mucorales (CLSI M27, 4th edition). As to conditions: Rhizopus arrhizus, strain 2086, clinical strain.
Text: as §1, §2

The subject of the next experiment is Rhizopus microsporus. Described as above. The conditions noted are these: strain 3435, clinical strain.
Text: as §1, §2

For a further experiment, the system named is Mucor circinelloides. The experiment can be described thus: MIC determination against ATCC and clinical isolates of the order Mucorales (CLSI M27, 4th edition).
Text: as §1, §2

Converted amounts (≈) assume the structure as drawn. Like-named read-outs stand apart in the source and are kept apart here. Numbered stars: 1 amine (or outer) side, 2 acyl side, 3 side chain; on linkers, the order of the positions; unused ones are H or OH. Bridge positions count the residues as written; N and C are the ends. Square brackets hold non-standard residues; d marks the D form. Peptide text beside a SMILES is read from it. * marks the point of attachment. hTyr(3S-OH,4S-OH,3'-OSO3H) = N[C@H](C(=O)O)[C@H](O)[C@@H](O)c1ccc(O)c(OS(=O)(=O)O)c1; Orn(4R-OH,5R-OH) = O=C([C@H](C[C@@H](O)[C@@H](O)N[*:3])N[*:1])[*:2]; Pro(3S-OH,4S-Me) = C[C@H]1CN[C@H](C(=O)O)[C@H]1O; X1 = CCCCCOc1ccc(-c2cc(-c3ccc(C(=O)*)cc3)no2)cc1; Gln(3R-OH) = NC(=O)C[C@@H](O)[C@H](N)C(=O)O; Hyp = O=C(O)[C@@H]1C[C@@H](O)CN1

The text below walks through data of US20240317791A1 (priority 2021, published 2024).

For `CCCCCOc1ccc(-c2cc(-c3ccc(C(=O)N[C@H]4C[C@@H](O)[C@@H](O)NC(=O)[C@@H]5[C@@H](O)[C@@H](C)CN5C(=O)[C@H]([C@H](O)CC(N)=O)NC(=O)[C@H]([C@H](O)[C@@H](O)c5ccc(O)c(OS(=O)(=O)O)c5)NC(=O)[C@@H]5C[C@@H](O)CN5C(=O)[C@H]([C@@H](C)O)NC4=O)cc3)no2)cc1` [Micafungin] (X1-[Orn(4R-OH,5R-OH)]T[Hyp][hTyr(3S-OH,4S-OH,3'-OSO3H)][Gln(3R-OH)][Pro(3S-OH,4S-Me)]; lactam 1-C), the MIC in the experiment on Candida auris (read-out: MIC values, strain I.2 (No 2), clade I/India) was 0.125 µg/mL (≈ 0.0984 µM); in the experiment on Candida auris (read-out: MIC values, strain I.3 (No 3), clade I/India), more than 1020 µg/mL; in the experiment with Candida auris (read-out: MIC values, strain I.4 (No 4), clade I/India), 0.125 µg/mL (≈ 0.0984 µM); in the experiment with Candida auris (read-out: MIC values, strain II.1 (No 5), clade II/Japan), 0.125 µg/mL (≈ 0.0984 µM); with Candida auris (read-out: MIC values, strain II.2 (No 1), clade II/India), 0.125 µg/mL (≈ 0.0984 µM); with Candida auris (read-out: MIC values, strain III.7 (No 12), clade III/Switzerland), 0.25 µg/mL (≈ 0.197 µM). Moreover, the MIC turned out to be 0.25 µg/mL (≈ 0.197 µM) in the experiment with Candida auris (read-out: MIC values, strain III.8 (No 13), clade III/Israel); 0.25 µg/mL (≈ 0.197 µM) in the experiment with Candida auris (read-out: MIC values, strain III.9 (No 14), clade III/Israel); 0.125 µg/mL (≈ 0.0984 µM) with Candida auris (read-out: MIC values, strain IV.1 (No 15), clade IV/Colombia); 0.25 µg/mL (≈ 0.197 µM) with Candida auris (read-out: MIC values, strain IV.10 (No 7), clade IV/Israel); 0.25 µg/mL (≈ 0.197 µM) with Candida auris (read-out: MIC values, strain IV.11 (No 8), clade IV/Israel); 0.25 µg/mL (≈ 0.197 µM) in the experiment with Candida auris (read-out: MIC values, strain IV.12 (No 9), clade IV/Israel). The MIC in the experiment on Candida auris (read-out: MIC values, strain IV.13 (No 10), clade IV/Israel) amounted to 0.25 µg/mL (≈ 0.197 µM); in the experiment on Candida auris (read-out: MIC values, strain IV.14 (No 11), clade IV/Israel), 0.5 µg/mL (≈ 0.394 µM); with Candida auris (read-out: MIC values, strain IV.2 (No 16), clade IV/Colombia) it was 0.125 µg/mL (≈ 0.0984 µM); with Candida auris (read-out: MIC values, strain IV.3 (No 17), clade IV/Colombia), 0.125 µg/mL (≈ 0.0984 µM); in the experiment on Candida auris (read-out: MIC values, strain IV.4 (No 18), clade IV/Colombia), 0.125 µg/mL (≈ 0.0984 µM); in the experiment on Candida auris (read-out: MIC values, strain IV.5 (No 19), clade IV/Colombia) it was 0.125 µg/mL (≈ 0.0984 µM). Also, the MIC with Candida auris (read-out: MIC values, strain IV.6 (No 20), clade IV/Colombia) came out at 0.125 µg/mL (≈ 0.0984 µM); in the experiment with Candida auris (read-out: MIC values, strain IV.7 (No 21), clade IV/Colombia), 0.25 µg/mL (≈ 0.197 µM); in the experiment with Candida auris (read-out: MIC values, strain IV.8 (No 22), clade IV/Colombia), 0.25 µg/mL (≈ 0.197 µM); in the experiment with Candida auris (read-out: MIC values, strain IV.9 (No 6), clade IV/Israel) it was 0.25 µg/mL (≈ 0.197 µM).

On to `CC[C@@H]([C@H](C)O)n1ncn(-c2ccc(N3CCN(c4ccc(OC[C@@H]5CO[C@@](Cn6cncn6)(c6ccc(F)cc6F)C5)cc4)CC3)cc2)c1=O` [Posaconazole], for which the MIC was 0.25 µg/mL (≈ 0.357 µM) against Rhizopus oryzae; 0.5 µg/mL (≈ 0.713 µM) with Rhizopus microsporus; 1 µg/mL (≈ 1.43 µM) against Mucor circinelloides (ATCC24905, strain ATCC 24905, ATCC strain); 0.5 µg/mL (≈ 0.713 µM) against Mucor circinelloides (strain 2109, clinical strain); 0.5 µg/mL (≈ 0.713 µM) against Mucor circinelloides (strain 2707, clinical strain); 1 µg/mL (≈ 1.43 µM) in the experiment with Mucor circinelloides (strain 4280, clinical strain).
